In publication PMC6952399, “Structures of lipoprotein signal peptidase II from Staphylococcus aureus complexed with antibiotics globomycin and myxovirescin” (Nature Communications, 2020) one finds IC50 and inhibition type data, which are given here for 2 compounds.

Test [1] has as its target T1, LspMrs G54A (Staphylococcus aureus, UniProt Q6GHN9, G54A).
T1 construct: MGSS-hexahistidine-SSGR-TEV site (ENLYFQ) (N, cleaved yes); made in house; host or cells: E. coli C43 (DE3)
Nature of the test: Gel-shift peptidase assay, LspMrs G54A mutant. Format: biochemical, methicillin-resistant Staphylococcus aureus. The procedure: (§1) LspA mutant genes (N52A, N52Q, G54A, G54P, R110A, R110K, D118N, N133A, N133Q and D136N) were obtained by site-directed mutagenesis of the wild-type lspA construct in pETDuet. Mutagenesis was performed using the Q5® Site-Directed Mutagenesis Kit (New England Biolabs) and specific primers are listed in Supplementary Table 5. The correct mutations were confirmed by sequencing (Eurofins Genomics). Expression and purification of all LspMrs wild-type and mutants for enzyme assays were performed as described above with the following modifications: TALON® Metal Affinity Resin (Clontech) was used for IMAC purification and the detergent DDM was used for membrane solubilisation and protein purification.
(§2) The peptidase activity of LspMrs and P. aeruginosa LspA (LspPae) was quantified in a coupled gel-shift assay developed previously for LspPae[5]. The P. aeruginosa lipoprotein pre-proICP and the first two enzymes in the bacterial lipoprotein processing pathway Lgt and LspA were expressed and purified, as described. For FRET assays LspMrs was expressed and purified as described above and LspPae was expressed and purified as described in a published protocol.
(§3) Gel-shift activity assay. […] Band intensities of ICP were quantified using Image Lab. […]

Test [2] deals with T2, LspMrs N52A (Staphylococcus aureus, UniProt Q6GHN9, N52A).
T2 construct: MGSS-hexahistidine-SSGR-TEV site (ENLYFQ) (N, cleaved yes); made in house; host or cells: E. coli C43 (DE3)
The test is described as follows: Gel-shift peptidase assay, LspMrs N52A mutant. Format: biochemical, methicillin-resistant Staphylococcus aureus. The procedure:
as §1, §2, §3

Test [3] concerns the target T3, LspMrs R110K (Staphylococcus aureus, UniProt Q6GHN9, R110K).
T3 construct: MGSS-hexahistidine-SSGR-TEV site (ENLYFQ) (N, cleaved yes); made in house; host or cells: E. coli C43 (DE3)
Nature of the test: Gel-shift peptidase assay, LspMrs R110K mutant. Format: biochemical, methicillin-resistant Staphylococcus aureus. How it is done:
as §1, §2, §3

The subject of test [4] is LspA from E. coli. Set-up: method as in earlier work. Conditions: ref 7 (supplementary references); cited from earlier work.

Broadly, the IC50 is the concentration that gives 50% inhibition. On to `CCCCCC[C@H]1OC(=O)CNC(=O)[C@H]([C@H](C)O)NC(=O)[C@H](CO)NC(=O)[C@H]([C@H](C)CC)NC(=O)[C@H](CC(C)C)N(C)C(=O)[C@@H]1C` [globomycin], for which the IC50 in test [1] amounted to 1.78 ± 0.25 µM; in test [2], 1.23 ± 0.59 µM; in test [3] it was 1.73 ± 0.1 µM. For the same compound, in test [4], the inhibition type result is “non-competitive”.

Regarding `CCCC1OC(=O)C(C)CC(C)CCCCC(=O)CCCC(CC)C=CC=C(COC)CCC(O)C(O)CC(O)CNC1=O` (stereo not drawn) [myxovirescin, myxovirescin A1], the IC50 in test [1] turned out to be 0.57 ± 0.01 µM; in test [3], 0.4 ± 0.03 µM.
